In paper PMC6954543, “A window-of-opportunity trial of the CXCR1/2 inhibitor reparixin in operable HER-2-negative breast cancer” (Breast Cancer Research : BCR, 2020):

What was measured:
CXCR1/2+ cells = system: CXCR1/2+ cells; parameters: method as in PMID 22996693; conditions: preclinical models; cited from earlier work
P62 = test: p62 expression on tumor cells by IHC; type: in vivo, human; conditions: IHC score 0 to 4
Description: (§1) All IHC analyses and scoring for extent (0 to 4) and intensity (0 to 3) were performed at the Houston Memorial Hermann Pathology laboratory as previously described. After antigen retrieval (Tris-Cl, pH 9.0), paraffin-embedded sections of sample tumors were incubated for 1 h at room temperature with the following antibodies: anti-human CXCR1 (rabbit polyclonal to CXCR1 - C-terminal, ab137351; Abcam, Cambridge, MA), anti-human CD31 (clone JC70A, #IS610; Dako, Glostrup, Denmark), anti-human p62 (clone SQSTM1/p62, # 5114; Cell Signaling), anti-human AKT (rabbit polyclonal to pan-AKT, # ab8805; Abcam), anti-human FAK (clone pY861, #44-626G; Invitrogen, Qiagen, Carlsbad, CA), anti-human phospho-AKT (clone Ser473 (D9E), #4060; Cell Signaling), anti-human phospho-FAK (clone Y397, #ab4803; Abcam), and anti-human LC3B (clone D11, #3868; Cell Signaling). For the evaluation of extent, the following semi-quantitative score method (0 to 4) was used: 0, no positive cells; 1, 1–25%; 2, 26–50%; 3, 51–75%; and 4, 76–100%.

P-AKT = P-AKT staining of core biopsies by IHC; type: in vivo, human; conditions: day 21 (16/20 at baseline)
Description: as §1

CXCR1 = CXCR1 expression on tumor cells by IHC; type: in vivo, human; conditions: largest proportion at levels 4 and 3 at baseline; level 3 and 2 or lower at day 21
Description: as §1

CD31 = CD31 staining of core biopsies by IHC; type: in vivo, human; conditions: day 21 (16/20 at baseline)
Description: as §1

[1] = system: human BC cell lines and xenografts; parameters: method as in PMID 20051626; conditions: single agent and in combination with chemotherapy; cited from earlier work
[2] = system: CXCL8 and other cytokines; test: Serum cytokine levels (Milliplex/Luminex); type: in vivo, human; conditions: day 1 vs day 21
Description: The concentrations of interleukin (IL)-1β, IL-6, CXCL8, tumor necrosis factor (TNF)-α, granulocyte macrophage colony stimulating factor (GM-CSF), vascular endothelial growth factor (VEGF), and basic fibroblast growth factor (b-FGF) were measured in sera obtained from patients on days 1 and 21 of the study.
In brief, serum cytokines levels were measured using a method, as previously published. Serum samples were processed and aliquoted within 24 hours for archiving at -80 °C. Samples were analyzed in batch using Milliplex bead kits (EMD Millipore Corporation, Billerica, MA) according to the manufacturer’s protocol with overnight incubations and an additional point added at the low end of the standard curve, and analyzed using a Luminex LX100 (Luminex Corporation, Austin, TX). BioPlex control and analysis software Version 5.0, (BioRad, Hercules, CA) was used.

[3] = system: ALDH1, CD24 and CD44 transcripts; test: CSC markers in core biopsies by RT-PCR; type: in vivo, human; conditions: 14 patients
Description: Core biopsy samples were placed in RNAlater, suspended in 700 μL of TRIzol® LS Reagent (Invitrogen) and homogenized using Bullet Blender (Next Advance Inc.). Next, RNA was extracted using the miRNeasy mini kit (Qiagen) and processed with the QIACube (Qiagen) automated low-throughput sample prep system. Thereafter, the isolated RNAs were reverse transcribed to cDNA (High Capacity cDNA Reverse Transcription Kit, ABI) and subsequently underwent quantitative RT-PCR (qRT-PCR) using 7900HT Fast Real-Time PCR System (ABI) to detect transcripts of markers associated with CSC (ALDH1, CD44, CD24, Akt, and PI3K), EMT (TWIST1, FOXC2, SNAIL1, SNAIL2, TG2, and ZEB1), epithelial cells (KRT19 and EpCAM), and leukocytes (CD45). We used average delta Ct (dCT) < 2 as a cutoff to determine the relative gene expression level. Since normal tissue was not available to act as the normalizer, we used GAPDH as the endogenous control (dCT = CTtarget − CTendogenous control).

[4] = Safety of oral reparixin in window-of-opportunity trial (TEAEs, ANC); type: in vivo, human
Text: In this single-arm, monotherapy trial (NCT01861054), female patients aged ≥ 18 years with HER-2-negative operable breast cancer (with a clinical diameter of ≥ 2 cm) that were not candidates for neoadjuvant therapy were recruited. The protocol was amended later to allow inclusion of patients with HER-2-negative operable breast cancer with a clinical diameter of > 1 cm, not eligible for neoadjuvant treatment. Patients needed to have previously untreated, histologically proven (per local investigator assessment) ER+ and/or PgR+ or ER−/PgR− breast cancer (i.e., triple-negative BC (TNBC)) with adequate organ function.
Patients were requested to take reparixin, an investigational orally available CXCR1/2 inhibitor, as two immediate-release 500-mg oral tablets every 6 to 8 h (every 8 h on the days of PK sampling) with food (a light meal or snack), for 21 consecutive days before surgery.
Descriptive statistics were used to summarize safety variables (i.e., adverse events, physical examination, vital signs, ECG, laboratory data, concomitant medications).

[5] = system: metastatic HER-2-negative BC; parameters: method as in PMID 28539464; conditions: in combination with weekly paclitaxel, cited from earlier work

CC(C)Cc1ccc([C@@H](C)C(=O)NS(C)(=O)=O)cc1 [reparixin]
recruitment of CXCR1/2+ cells from the bloodstream to visceral sites (CXCR1/2+ cells): reduce
P62 extent (percentage of positive cells), change baseline to day 21 (P62): decreased from level 4 to level 3 or lower in the majority of patients
patients with value of 0 for P-AKT, extent and intensity (P-AKT): 11/15
CXCR1 positivity, extent and intensity, change at day 21 (CXCR1): decrease
patients with value of 0 for CD31, extent and intensity (CD31): 11/15
metastatic spread of human BC cells and CSC (ALDH+ and CD24−/CD44+) content [1]: reduced
other cytokines (IL-1β, IL-6, TNF-α, GM-CSF, VEGF, b-FGF), change [2]: No statistically significant changes
patients negative for CSC at both baseline and day 21 [3]: 6 patients
patients with CSC (transcripts for CD44 but not CD24) at both baseline and day 21 [3]: Five
ALDH1 transcripts at day 21 ([3]; 1/14 expressed ALDH1 at baseline): all patients were negative
patients who experienced ≥ 1 TEAE related to the study drug ([4]; 1000 mg t.i.d. oral, 21 days): Ten of 20
TEAEs leading to discontinuation ([4]; 1000 mg t.i.d. oral, 21 days, 20 patients): no treatment-emergent adverse events (TEAEs) leading to discontinuation
delay of surgery due to study treatment ([4]; 20 patients): No patients had to delay surgery
serious adverse reactions ([4]; 20 patients): no serious adverse reactions
neutropenia / decrease in absolute neutrophil count (ANC) ([4]; ANC at weekly intervals, 10/20 patients): neither neutropenia of any grade nor any sustained decrease in ANC
grade of TEAEs related to the study drug ([4]; all related TEAEs): ≤ 2 grade
TEAE grade 1 fatigue ([4]; of 20 patients): 8 patients
TEAE nausea ([4]; of 20 patients): 5 patients
TEAE related to study drug: fatigue ([4]; of 20 patients): 4 patients
TEAE related to study drug: flatulence ([4]; of 20 patients): 2 patients
TEAE related to study drug: headache ([4]; of 20 patients): 2 patients
TEAE related to study drug: nausea ([4]; of 20 patients): 2 patients
serious TEAE ([4]; of 20 patients, unrelated to the study drug): 1 patient
long-lasting CR ([5]; 27 evaluable patients): 2
response rate ([5]; 27 evaluable patients): 30%
gastrointestinal disorders, share of all TEAEs ([5]; all grade ≤ 2): 39%
Grade 3 treatment-related TEAE, share of all reports [5]: 2.7%
